Data on 3 compounds can be found in ChEMBL document CHEMBL1909046, “DrugMatrix in vitro pharmacology data”.

The term IC50 denotes the concentration needed to halve the response being measured.

Sequence of Estrogen receptor beta (Q92731 whole entry): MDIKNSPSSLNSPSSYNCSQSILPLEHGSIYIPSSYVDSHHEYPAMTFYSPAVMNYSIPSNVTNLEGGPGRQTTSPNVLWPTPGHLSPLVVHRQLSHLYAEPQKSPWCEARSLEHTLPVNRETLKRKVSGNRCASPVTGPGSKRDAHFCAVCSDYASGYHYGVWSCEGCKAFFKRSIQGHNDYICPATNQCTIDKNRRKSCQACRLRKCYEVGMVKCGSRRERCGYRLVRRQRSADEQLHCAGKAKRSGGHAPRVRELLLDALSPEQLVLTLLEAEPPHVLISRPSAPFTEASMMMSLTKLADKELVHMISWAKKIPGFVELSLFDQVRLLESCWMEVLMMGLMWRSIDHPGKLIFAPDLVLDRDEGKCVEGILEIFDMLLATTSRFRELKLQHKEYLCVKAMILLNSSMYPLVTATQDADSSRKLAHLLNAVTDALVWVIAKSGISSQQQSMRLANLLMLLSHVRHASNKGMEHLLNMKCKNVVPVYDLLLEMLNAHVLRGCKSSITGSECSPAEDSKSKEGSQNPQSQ
Sequence of C-C chemokine receptor type 2 (P41597 whole entry): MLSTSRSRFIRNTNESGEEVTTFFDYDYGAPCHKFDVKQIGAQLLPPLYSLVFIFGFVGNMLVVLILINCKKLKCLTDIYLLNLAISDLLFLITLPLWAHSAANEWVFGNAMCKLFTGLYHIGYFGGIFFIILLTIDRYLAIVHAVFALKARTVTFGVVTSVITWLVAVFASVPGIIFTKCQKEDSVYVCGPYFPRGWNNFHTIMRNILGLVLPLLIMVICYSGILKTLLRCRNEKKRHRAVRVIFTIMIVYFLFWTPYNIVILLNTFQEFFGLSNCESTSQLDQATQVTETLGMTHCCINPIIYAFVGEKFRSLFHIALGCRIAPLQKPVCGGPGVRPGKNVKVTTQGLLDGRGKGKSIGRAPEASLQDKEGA

In the first test the target is Insulin receptor (Rattus norvegicus, UniProt P15127). Further: in other assays of this panel Not Active means under 50% inhibition at 10 µM.
Sequence of Insulin receptor (P15127 27-759 limits assumed): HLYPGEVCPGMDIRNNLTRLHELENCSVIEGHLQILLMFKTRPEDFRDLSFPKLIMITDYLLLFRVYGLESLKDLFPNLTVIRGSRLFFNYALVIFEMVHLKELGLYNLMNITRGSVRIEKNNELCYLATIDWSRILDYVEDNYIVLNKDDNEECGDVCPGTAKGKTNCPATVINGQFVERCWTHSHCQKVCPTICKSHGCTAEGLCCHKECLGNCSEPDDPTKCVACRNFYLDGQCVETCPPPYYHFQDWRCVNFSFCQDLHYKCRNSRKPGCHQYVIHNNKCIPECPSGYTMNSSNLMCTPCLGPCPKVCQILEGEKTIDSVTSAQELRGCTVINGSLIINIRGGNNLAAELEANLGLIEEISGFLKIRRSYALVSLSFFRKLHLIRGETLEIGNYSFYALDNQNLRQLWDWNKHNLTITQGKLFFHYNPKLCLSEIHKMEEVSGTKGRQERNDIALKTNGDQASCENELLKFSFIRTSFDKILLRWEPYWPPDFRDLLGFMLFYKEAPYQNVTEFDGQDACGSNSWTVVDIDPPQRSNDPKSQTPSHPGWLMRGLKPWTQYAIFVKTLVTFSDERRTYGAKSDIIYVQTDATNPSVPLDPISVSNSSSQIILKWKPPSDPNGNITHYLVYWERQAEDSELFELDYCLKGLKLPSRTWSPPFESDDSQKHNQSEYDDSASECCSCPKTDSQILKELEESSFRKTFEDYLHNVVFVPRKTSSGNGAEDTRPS
Sequence of Insulin receptor (P15127 764-1383 limits assumed): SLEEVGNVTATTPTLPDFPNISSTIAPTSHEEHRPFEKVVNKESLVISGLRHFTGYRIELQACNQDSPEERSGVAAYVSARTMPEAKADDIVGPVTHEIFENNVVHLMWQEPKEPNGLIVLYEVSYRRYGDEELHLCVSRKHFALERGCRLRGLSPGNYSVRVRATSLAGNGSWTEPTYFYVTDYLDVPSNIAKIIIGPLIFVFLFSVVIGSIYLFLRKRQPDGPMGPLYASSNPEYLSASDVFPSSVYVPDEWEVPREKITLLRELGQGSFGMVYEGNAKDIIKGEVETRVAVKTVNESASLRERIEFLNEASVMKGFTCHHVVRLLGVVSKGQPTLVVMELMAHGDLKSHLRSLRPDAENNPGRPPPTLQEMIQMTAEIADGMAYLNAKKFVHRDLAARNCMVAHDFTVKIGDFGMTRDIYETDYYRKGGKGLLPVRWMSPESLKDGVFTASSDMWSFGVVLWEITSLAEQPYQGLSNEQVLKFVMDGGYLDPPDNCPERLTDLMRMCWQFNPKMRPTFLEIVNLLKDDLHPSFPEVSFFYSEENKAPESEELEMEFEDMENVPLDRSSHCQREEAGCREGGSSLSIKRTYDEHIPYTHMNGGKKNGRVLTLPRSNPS
Assay: not given
It counts as cell membranes, Wistar, Liver, Membrane.
Conditions: not given
`Oc1cccc2cccnc12` [OXYQUINOLINE]: the IC50 entry is on record as “Not Active”.

Turning to `O=c1cc(-c2ccccc2)oc2c1ccc1ccccc12` [ALPHA-NAPHTHOFLAVONE], the IC50 entry is “Not Active”.

Take `CN(C)CCCC1(c2ccc(F)cc2)OCc2cc(C#N)ccc21` (stereo unspecified) [CITALOPRAM]: the IC50 entry is on record as “Not Active”.

Test system in another test: not listed separately
In words: DRUGMATRIX: Phorbol Ester radioligand binding (ligand: [3H] PDBu). It counts as cell membranes, Mus musculus, ICR, Brain, Membrane. To be noted: Not Active = under 50% inhibition at 10 µM.
In the case of `Oc1cccc2cccnc12` [OXYQUINOLINE], the IC50 result was “Not Active” and the Ki entry is “Not Active”.

Regarding `O=c1cc(-c2ccccc2)oc2c1ccc1ccccc12` [ALPHA-NAPHTHOFLAVONE], the IC50 result was “Not Active” and the Ki entry is “Not Active”.

Turning to `CN(C)CCCC1(c2ccc(F)cc2)OCc2cc(C#N)ccc21` (stereo unspecified) [CITALOPRAM], the IC50 entry is listed as “Not Active” and the Ki result is reported as “Not Active”.

The target of a further test is T1, Leukotriene C4 synthase (Cavia porcellus, UniProt A6XA80).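 Further: enzyme inhibition assay of leukotriene C4 synthase, using LTA4 as the substrate; in other assays of this panel Not Active means under 50% inhibition at 10 µM.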
T1 sequence (A6XA80 whole entry): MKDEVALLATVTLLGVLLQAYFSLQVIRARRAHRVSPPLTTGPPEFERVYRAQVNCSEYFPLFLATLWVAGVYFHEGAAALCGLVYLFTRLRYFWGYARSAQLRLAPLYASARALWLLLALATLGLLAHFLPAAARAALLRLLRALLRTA
Description: biochemical. It counts as tissue-based, Lung.
Conditions: not given
For the compound `Oc1cccc2cccnc12` [OXYQUINOLINE], the IC50 result is “Not Active”.

Consider `O=c1cc(-c2ccccc2)oc2c1ccc1ccccc12` [ALPHA-NAPHTHOFLAVONE], for which the IC50 result was “Not Active”.

Turning to `CN(C)CCCC1(c2ccc(F)cc2)OCc2cc(C#N)ccc21` (stereo unspecified) [CITALOPRAM], the IC50 result is “Not Active”.

A further test deals with T2, Neutrophil elastase (Homo sapiens, UniProt P08246).
T2 sequence (P08246 whole entry): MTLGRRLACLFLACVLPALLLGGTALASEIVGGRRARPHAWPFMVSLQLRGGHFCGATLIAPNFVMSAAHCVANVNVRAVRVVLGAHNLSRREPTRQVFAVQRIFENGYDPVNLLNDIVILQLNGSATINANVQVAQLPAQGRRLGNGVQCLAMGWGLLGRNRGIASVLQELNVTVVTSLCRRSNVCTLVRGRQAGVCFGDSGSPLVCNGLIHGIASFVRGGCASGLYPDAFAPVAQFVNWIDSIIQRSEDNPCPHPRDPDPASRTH
Assay: not given
It counts as tissue-based.
Conditions: not given
With `Oc1cccc2cccnc12` [OXYQUINOLINE], the IC50 result was “Not Active”.

Consider `O=c1cc(-c2ccccc2)oc2c1ccc1ccccc12` [ALPHA-NAPHTHOFLAVONE], for which the IC50 result is reported as “Not Active”.

As to `CN(C)CCCC1(c2ccc(F)cc2)OCc2cc(C#N)ccc21` (stereo unspecified) [CITALOPRAM], the IC50 result is given as “Not Active”.

A further test deals with T3, Neuropeptide Y receptor type 1 (Homo sapiens, UniProt P25929).
T3 sequence (P25929 whole entry): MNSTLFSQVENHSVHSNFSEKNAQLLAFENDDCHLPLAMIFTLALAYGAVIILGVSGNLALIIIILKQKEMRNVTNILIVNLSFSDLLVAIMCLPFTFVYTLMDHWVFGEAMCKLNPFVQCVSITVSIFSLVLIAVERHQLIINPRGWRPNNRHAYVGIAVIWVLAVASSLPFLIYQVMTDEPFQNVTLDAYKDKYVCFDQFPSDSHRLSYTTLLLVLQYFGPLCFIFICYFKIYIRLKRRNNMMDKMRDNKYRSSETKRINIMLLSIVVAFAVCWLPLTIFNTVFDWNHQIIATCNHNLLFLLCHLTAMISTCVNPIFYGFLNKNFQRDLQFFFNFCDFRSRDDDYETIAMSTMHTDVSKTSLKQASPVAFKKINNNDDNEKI
Assay: not given
It counts as cell membranes, Membrane. To be noted: sk-n-mc.
For the compound `Oc1cccc2cccnc12` [OXYQUINOLINE], the IC50 entry is listed as “Not Active”.

For `O=c1cc(-c2ccccc2)oc2c1ccc1ccccc12` [ALPHA-NAPHTHOFLAVONE], the IC50 result was “Not Active”.

`CN(C)CCCC1(c2ccc(F)cc2)OCc2cc(C#N)ccc21` (stereo unspecified) [CITALOPRAM]: the IC50 result is on record as “Not Active”.

The target of the next test is T4, Nitric oxide synthase, inducible (Mus musculus, UniProt P29477).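 Further: inhibition of iNOS enzyme activity measured with L-arginine as substrate; in other assays of this panel Not Active means under 50% inhibition at 10 µM.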
T4 sequence (P29477 whole entry): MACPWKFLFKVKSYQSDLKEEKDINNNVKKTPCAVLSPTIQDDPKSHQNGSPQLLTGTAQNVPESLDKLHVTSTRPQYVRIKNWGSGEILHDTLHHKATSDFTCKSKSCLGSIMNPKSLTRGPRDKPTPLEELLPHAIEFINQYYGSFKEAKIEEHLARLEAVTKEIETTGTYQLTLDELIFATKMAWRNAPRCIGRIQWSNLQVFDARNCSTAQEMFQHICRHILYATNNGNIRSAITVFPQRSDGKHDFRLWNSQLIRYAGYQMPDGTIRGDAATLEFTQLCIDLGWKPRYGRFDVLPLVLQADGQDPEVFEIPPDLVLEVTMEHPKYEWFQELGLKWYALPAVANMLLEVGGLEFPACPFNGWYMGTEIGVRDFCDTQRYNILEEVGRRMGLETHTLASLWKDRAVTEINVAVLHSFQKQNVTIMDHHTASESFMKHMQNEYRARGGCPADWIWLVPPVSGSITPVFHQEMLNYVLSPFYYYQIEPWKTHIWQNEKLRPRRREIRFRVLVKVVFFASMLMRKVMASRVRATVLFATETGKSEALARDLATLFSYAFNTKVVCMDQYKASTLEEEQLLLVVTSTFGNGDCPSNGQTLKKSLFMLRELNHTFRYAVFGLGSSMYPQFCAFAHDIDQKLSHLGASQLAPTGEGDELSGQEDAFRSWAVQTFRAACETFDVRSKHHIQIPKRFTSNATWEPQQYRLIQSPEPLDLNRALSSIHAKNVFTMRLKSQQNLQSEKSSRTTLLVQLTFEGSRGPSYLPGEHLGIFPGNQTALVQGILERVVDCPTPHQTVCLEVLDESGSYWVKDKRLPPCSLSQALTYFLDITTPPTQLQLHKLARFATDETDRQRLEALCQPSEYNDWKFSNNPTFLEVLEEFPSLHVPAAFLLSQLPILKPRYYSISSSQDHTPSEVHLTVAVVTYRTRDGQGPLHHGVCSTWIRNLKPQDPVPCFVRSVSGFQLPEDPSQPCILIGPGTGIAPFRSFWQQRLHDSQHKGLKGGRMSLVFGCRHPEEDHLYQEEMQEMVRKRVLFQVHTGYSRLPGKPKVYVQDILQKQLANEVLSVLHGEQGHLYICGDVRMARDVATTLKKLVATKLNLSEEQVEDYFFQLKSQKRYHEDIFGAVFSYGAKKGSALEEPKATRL
Assay: not given
Conditions: not given
More on the design: species or system Escherichia coli.
`Oc1cccc2cccnc12` [OXYQUINOLINE]: the 50% inhibitory concentration (IC50) entry is listed as “Not Active”.

On to `O=c1cc(-c2ccccc2)oc2c1ccc1ccccc12` [ALPHA-NAPHTHOFLAVONE], for which the IC50 entry is reported as “Not Active”.

Regarding `CN(C)CCCC1(c2ccc(F)cc2)OCc2cc(C#N)ccc21` (stereo unspecified) [CITALOPRAM], the IC50 entry is reported as “Not Active”.

The next test concerns the target Estrogen receptor beta (Homo sapiens, UniProt Q92731). Further: in other assays of this panel Not Active means under 50% inhibition at 10 µM.
Assay: not given
The following applies: sf9.
In the case of `Oc1cccc2cccnc12` [OXYQUINOLINE], the IC50 result is given as “Not Active”.

Regarding `O=c1cc(-c2ccccc2)oc2c1ccc1ccccc12` [ALPHA-NAPHTHOFLAVONE], the half-inhibitory concentration (IC50) entry is on record as “Not Active”.

With `CN(C)CCCC1(c2ccc(F)cc2)OCc2cc(C#N)ccc21` (stereo unspecified) [CITALOPRAM], the IC50 result is “Not Active”.

Another test has as its target C-C chemokine receptor type 2 (Homo sapiens, UniProt P41597). Further: in other assays of this panel Not Active means under 50% inhibition at 10 µM.
Assay: not given
The following applies: cho-k1. It counts as cell membranes, CHO-K1, Membrane.
For `Oc1cccc2cccnc12` [OXYQUINOLINE], the IC50 entry is recorded as “Not Active”.

For the compound `O=c1cc(-c2ccccc2)oc2c1ccc1ccccc12` [ALPHA-NAPHTHOFLAVONE], the IC50 result is given as “Not Active”.

Consider `CN(C)CCCC1(c2ccc(F)cc2)OCc2cc(C#N)ccc21` (stereo unspecified) [CITALOPRAM], for which the IC50 entry is recorded as “Not Active”.

Test system in another test: not listed separately
In words: DRUGMATRIX: Glutamate, AMPA radioligand binding (ligand: [3H] AMPA). It counts as cell membranes, Rattus norvegicus, Wistar, Cerebral cortex, Membrane. To be noted: Not Active = under 50% inhibition at 10 µM.
In the case of `Oc1cccc2cccnc12` [OXYQUINOLINE], the IC50 entry is “Not Active” and the Ki entry is given as “Not Active”.

For `O=c1cc(-c2ccccc2)oc2c1ccc1ccccc12` [ALPHA-NAPHTHOFLAVONE], the IC50 result is on record as “Not Active” and the Ki entry is “Not Active”.

As for `CN(C)CCCC1(c2ccc(F)cc2)OCc2cc(C#N)ccc21` (stereo unspecified) [CITALOPRAM], the IC50 result was “Not Active” and the Ki result was “Not Active”.

A further test concerns the target cGMP-specific 3',5'-cyclic phosphodiesterase (Homo sapiens, UniProt O76074). Description: DRUGMATRIX: Phosphodiesterase PDE5 enzyme inhibition (substrate: [3H]cGMP + cGMP). The following applies: Not Active = under 50% inhibition at 10 µM; read-out: IC50. It counts as tissue-based, Platelet.
Consider `O=c1cc(-c2ccccc2)oc2c1ccc1ccccc12` [ALPHA-NAPHTHOFLAVONE], for which the IC50 came out at 2300 nM.

The test is the same for the next values; noted with them: platelet; Not Active = under 50% inhibition at 10 µM.
As for `Oc1cccc2cccnc12` [OXYQUINOLINE], the IC50 result is given as “Not Active”.

With `CN(C)CCCC1(c2ccc(F)cc2)OCc2cc(C#N)ccc21` (stereo unspecified) [CITALOPRAM], the IC50 entry is given as “Not Active”.

Test system in another test: not listed separately
Description: DRUGMATRIX: ATPase, Na+/K+ enzyme inhibition (substrate: ATP). The following applies: Not Active = under 50% inhibition at 10 µM. It counts as tissue-based, Sus scrofa, Heart.
For `Oc1cccc2cccnc12` [OXYQUINOLINE], the IC50 entry is listed as “Not Active” and the Ki result is given as “Not Active”.

With `O=c1cc(-c2ccccc2)oc2c1ccc1ccccc12` [ALPHA-NAPHTHOFLAVONE], the IC50 entry is “Not Active” and the Ki result is listed as “Not Active”.

Regarding `CN(C)CCCC1(c2ccc(F)cc2)OCc2cc(C#N)ccc21` (stereo unspecified) [CITALOPRAM], the IC50 result is recorded as “Not Active” and the Ki entry was “Not Active”.

Test system in the next test: not listed separately
Description: DRUGMATRIX: Glutamate, Kainate radioligand binding (ligand: [3H] Kainic acid). It counts as cell membranes, Rattus norvegicus, Wistar, Brain, Membrane. To be noted: Not Active = under 50% inhibition at 10 µM.
In the case of `Oc1cccc2cccnc12` [OXYQUINOLINE], the IC50 entry is “Not Active” and the Ki entry is “Not Active”.

`O=c1cc(-c2ccccc2)oc2c1ccc1ccccc12` [ALPHA-NAPHTHOFLAVONE]: the IC50 entry is recorded as “Not Active” and the Ki result is “Not Active”.

With `CN(C)CCCC1(c2ccc(F)cc2)OCc2cc(C#N)ccc21` (stereo unspecified) [CITALOPRAM], the IC50 entry is given as “Not Active” and the Ki entry is listed as “Not Active”.

A further test deals with T5, C-C chemokine receptor type 4 (Homo sapiens, UniProt P51679).
T5 sequence (P51679 whole entry): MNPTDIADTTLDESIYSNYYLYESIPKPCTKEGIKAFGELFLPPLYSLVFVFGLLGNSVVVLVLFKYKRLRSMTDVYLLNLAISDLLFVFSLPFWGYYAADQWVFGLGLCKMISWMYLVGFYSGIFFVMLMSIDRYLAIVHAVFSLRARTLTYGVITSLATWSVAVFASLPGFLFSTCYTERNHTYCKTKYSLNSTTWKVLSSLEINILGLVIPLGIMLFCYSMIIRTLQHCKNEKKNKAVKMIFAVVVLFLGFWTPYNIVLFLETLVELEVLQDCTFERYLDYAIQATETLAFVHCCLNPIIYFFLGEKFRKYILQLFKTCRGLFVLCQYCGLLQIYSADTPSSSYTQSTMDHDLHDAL
Assay: not given
It counts as cell membranes, Membrane. The following applies: chem-1.
Take `Oc1cccc2cccnc12` [OXYQUINOLINE]: the IC50 entry is reported as “Not Active”.

`O=c1cc(-c2ccccc2)oc2c1ccc1ccccc12` [ALPHA-NAPHTHOFLAVONE]: the IC50 entry is recorded as “Not Active”.

Regarding `CN(C)CCCC1(c2ccc(F)cc2)OCc2cc(C#N)ccc21` (stereo unspecified) [CITALOPRAM], the IC50 entry is “Not Active”.
